Source: patent US7432295B2, “Preparation of compounds useful for the detection of hypoxia” (The Trustees of The University of Pennsylvania, priority 1999, dated 2008)
Where “and” joins values, the source holds several entries; their conditions need not be identical. Identical values can stand only once. Blank lines part the entries; values can stand above or below the molecule they belong to.

How the values were obtained:
[1] = cited from earlier work
hypoxic tumors = settings: in vivo; cited from earlier work
[2] = Distribution of radioactive drug in various organs and tissues of tumor-bearing rats (γ-counter); type: in vivo, male Buffalo rats; settings: I/V
Protocol: To measure the distribution of radioactive drug in various organs and tissues, the solution of […] in saline buffer was injected I/V into 3 male Buffalo rats. […] The radioactivity of samples was measured by γ-counter and corrected for weight and the time of decay.
Results from 3 animals are shown.

[3] = system: hypoxic Q7 tumor (Morris 7777 hepatoma); assay: PET analysis of a tumor-bearing rat treated with [18F]-EF5; type: in vivo, male Buffalo rats; settings: rat bearing Q7 tumor in the leg, 150 minutes post injection
Protocol: The dark spot on the right side of the image represents a tumor and the dark spot in the middle of the image represents a bladder.
FIG. 3 illustrates a PET image of a tumor-bearing rat treated with 18-F-labeled EF5, 150 minutes post injection. The dark spot in the right side of the image represents the tumor and the dark spot in the middle of the image represents the bladder.
Q7 cells were obtained from the American Type Culture Collection (ATCC). They were maintained in exponential growth by transfers at 3.5 day intervals with standard culture conditions. Growth medium was Eagle's NEM supplemented with 15% fetal calf serum and standard penicillin and streptomycin.
All animal studies conformed to the regulations of the University of Pennsylvania Institutional Animal Care and Use Committee. Male Buffalo rats (Harlan Sprague Dawley, Indianapolis, Ind., USA) were used for all studies. Donor tumors were created by injecting 1 million Q7 cells subcutaneously into the thigh region. The average growth time to achieve a 1 cm diameter tumor was 21 days. Tumors of less than 2 g were used in the experiments.

[4] = multiple radioactive products distinct from parent drug following renal clearance; cited from earlier work

SMILES: O=C(Cn1ccnc1[N+](=O)[O-])NCC(F)(F)C(F)(F)F [EF5, 2-(2-nitro-1H-imidazol-1-yl)-N-(2,2,3,3,3-pentafluoropropyl)acetamide]
Drug stability in vivo [1]: high drug stability in vivo
Blood-brain barrier passage ([1]; in vivo): ability to cross blood-brain barrier

SMILES: O=C(Cn1ccnc1[N+](=O)[O-])NCCCF [[^18F]-EF1]
Biodistribution (hypoxic tumors): relatively uniform biodistribution limited by slow equilibration with brain tissue
Labeling of hypoxic tumors (hypoxic tumors): good potential for labeling of hypoxic tumors

Tissue distribution of [^18F]-EF5 in rats bearing tumors ([2]; Blood, 3 hrs): 0.260 % dose/gram and 0.279 % dose/gram
Tissue distribution of [^18F]-EF5 in rats bearing tumors ([2]; Bone, 3 hrs): 0.040 % dose/gram and 0.079 % dose/gram
Tissue distribution of [^18F]-EF5 in rats bearing tumors ([2]; Bone, 4 hrs): 0.071 % dose/gram
Tissue distribution of [^18F]-EF5 in rats bearing tumors ([2]; Brain, 3 hrs): 0.116 % dose/gram and 0.176 % dose/gram
Tissue distribution of [^18F]-EF5 in rats bearing tumors ([2]; Brain, 4 hrs): 0.150 % dose/gram
Tissue distribution of [^18F]-EF5 in rats bearing tumors ([2]; Heart, 3 hrs): 0.209 % dose/gram and 0.318 % dose/gram
Tissue distribution of [^18F]-EF5 in rats bearing tumors ([2]; Heart): 0.277 % dose/gram
Tissue distribution of [^18F]-EF5 in rats bearing tumors ([2]; Intestine, 3 hrs): 0.410 % dose/gram and 0.477 % dose/gram
Tissue distribution of [^18F]-EF5 in rats bearing tumors ([2]; Intestine, 4 hrs): 0.376 % dose/gram
Tissue distribution of [^18F]-EF5 in rats bearing tumors ([2]; Kidney, 3 hrs): 0.510 % dose/gram and 0.650 % dose/gram
Tissue distribution of [^18F]-EF5 in rats bearing tumors ([2]; Kidney, 4 hrs): 0.500 % dose/gram
Tissue distribution of [^18F]-EF5 in rats bearing tumors ([2]; Liver, 3 hrs): 0.399 % dose/gram and 0.578 % dose/gram
Tissue distribution of [^18F]-EF5 in rats bearing tumors ([2]; Liver, 4 hrs): 0.489 % dose/gram
Tissue distribution of [^18F]-EF5 in rats bearing tumors ([2]; Lung, 3 hrs): 0.217 % dose/gram and 0.357 % dose/gram
Tissue distribution of [^18F]-EF5 in rats bearing tumors ([2]; Lung, 4 hrs): 0.326 % dose/gram
Tissue distribution of [^18F]-EF5 in rats bearing tumors ([2]; Muscle, 3 hrs): 0.162 % dose/gram and 0.246 % dose/gram
Tissue distribution of [^18F]-EF5 in rats bearing tumors ([2]; Muscle, 4 hrs): 0.187 % dose/gram
Tissue distribution of [^18F]-EF5 in rats bearing tumors ([2]; Spleen, 3 hrs): 0.192 % dose/gram and 0.294 % dose/gram
Tissue distribution of [^18F]-EF5 in rats bearing tumors ([2]; Spleen, 4 hrs): 0.242 % dose/gram
SMILES: O=C(Cn1ccnc1[N+](=O)[O-])NCC(F)(F)C(F)(F)F [[^18F]-EF5, [^18F]-2-(2-Nitro-1H-imidazol-1-yl)-N-(2,2,3,3,3-pentafluoropropyl)-acetamide]
Visibility of the tumor in the PET image [3]: clearly visible

SMILES: O=[N+]([O-])c1nccn1CC(O)C[18F] (stereo not shown) [[^18F]-fluoromisonidazole]
Stability in vivo [4]: not stable in vivo
